# Counter-ions that a name gives are not always drawn.
# Tests used:
# [1] = molecular target: T1, D3 receptors (Chlorocebus aethiops, UniProt P52703); assay: D3 receptor binding, displacement of 3H-YM 09151-2; set-up: species or system African Green monkey; conditions: recombinant receptors in COS cell pellets; 0.5 nM 3H-YM 09151-2; 48° C; pH 7.4
# T1 construct: expressed in transfected cells; host or cells: COS cells
# Protocol: (§1) Pellets of COS cells containing recombinantly produced D2 or D3 receptors from African Green monkey were used for the assays. The sample is homogenized in 100 volumes (w/vol) of 0.05M Tris HCl buffer at 4° C. and pH 7.4. The sample is then centrifuged at 30,000×g and resuspended and rehomogenized. The sample is then centrifuged as described and the final tissue sample is frozen until use. The tissue is resuspended 1:20 (wt/vol) in 0.05M Tris HCl buffer containing 100 mM NaCl.
# (§2) Incubations are carried out at 48° C. and contain 0.4 ml of tissue sample, 0.5 nM ^3 H-YM 09151-2 and the compound of interest in a total incubation of 1.0 ml. Nonspecific binding is defined as that binding found in the presence of […] spiperone; without further additions, nonspecific binding is less than 20% of total binding. The binding characteristics of representative compounds of the invention for D2 and D3 receptor subtypes are shown in Table 2 for rat striatal homogenates.
# [2] = molecular target: T2, D2 receptors (Chlorocebus aethiops, UniProt P52702); assay: D2 receptor binding, displacement of 3H-YM 09151-2; set-up: species or system African Green monkey; conditions: recombinant receptors in COS cell pellets; 0.5 nM 3H-YM 09151-2; 48° C; pH 7.4
# T2 construct: expressed in transfected cells; host or cells: COS cells
# Protocol: as §1, §2
# T2 sequence (P52702 whole entry): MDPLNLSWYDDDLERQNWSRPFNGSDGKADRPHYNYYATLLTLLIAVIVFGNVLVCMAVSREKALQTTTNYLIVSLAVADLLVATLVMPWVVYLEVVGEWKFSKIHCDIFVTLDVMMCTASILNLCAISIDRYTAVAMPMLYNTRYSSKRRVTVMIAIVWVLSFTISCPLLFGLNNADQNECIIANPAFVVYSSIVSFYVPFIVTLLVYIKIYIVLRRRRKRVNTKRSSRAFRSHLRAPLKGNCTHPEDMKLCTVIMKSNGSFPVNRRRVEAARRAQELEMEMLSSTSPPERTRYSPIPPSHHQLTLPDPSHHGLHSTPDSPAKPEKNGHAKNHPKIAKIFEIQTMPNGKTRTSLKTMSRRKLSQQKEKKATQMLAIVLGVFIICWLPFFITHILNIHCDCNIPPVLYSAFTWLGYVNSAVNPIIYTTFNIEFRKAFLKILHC
# T1 sequence (P52703 whole entry): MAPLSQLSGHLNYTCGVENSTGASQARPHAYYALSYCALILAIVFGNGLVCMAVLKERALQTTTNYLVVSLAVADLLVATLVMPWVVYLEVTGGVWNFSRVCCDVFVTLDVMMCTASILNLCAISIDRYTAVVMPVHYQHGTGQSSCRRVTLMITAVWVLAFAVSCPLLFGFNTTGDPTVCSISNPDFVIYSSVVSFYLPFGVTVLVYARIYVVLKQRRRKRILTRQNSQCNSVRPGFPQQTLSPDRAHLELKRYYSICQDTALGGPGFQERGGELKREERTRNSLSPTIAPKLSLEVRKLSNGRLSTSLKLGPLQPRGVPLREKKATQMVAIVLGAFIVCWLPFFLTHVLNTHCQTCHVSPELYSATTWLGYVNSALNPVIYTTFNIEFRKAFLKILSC
Structure (SMILES),Ki [1] [nM],Ki [2] [nM]
"O=C(NCCCCN1CCN(c2cccc(Cl)c2Cl)CC1)c1ccc2oc3ccccc3c2c1 [Compound 1, N-(1-{4-[4-(2,3-Dichlorophenyl)piperazin-1-yl]}butyl)-2-dibenzofurancarboxamide hydrochloride]",1,157
"O=C(NCCCCN1CCN(c2cccc3ccccc23)CC1)c1ccc2oc3ccccc3c2c1 [Compound 2, N-(1-{4-[4-(1-Naphthyl)piperazin-1-yl]}butyl)-2-dibenzofurancarboxamide hydrochloride]",1.3,201

# From patent US5710274A, “N-aminoalkyldibenzofurancarboxamides; new dopamine receptor subtype specific ligands” (Neurogen Corporation, priority 1996, dated 1998)
